Reference: patent US20230108049A1, “ORAL FAST-DISPERSING DOSAGE FORM OF RIMEGEPANT” (BIOHAVEN PHARMACEUTICAL HOLDING COMPANY LTD., priority 2020, published 2023)
Entries after “also recorded” stand apart in the source; their conditions may differ. Where two headings read alike, the source gives them in different places.

Experiments:
rats = test: Second fertility study, rats, lower doses (0, 5, 15, or 25 mg/kg/day); type: in vivo, rat
clinical = settings: human, in vivo
Description: Following oral administration of NURTEC ODT, rimegepant is absorbed with the maximum concentration at 1.5 hours.
(§1) The steady state volume of distribution of rimegepant is 120 L. Plasma protein binding of rimegepant is approximately 96%.
(§2) Following oral administration of [^14C]-rimegepant to healthy male subjects, 78% of the total radioactivity was recovered in feces and 24% in urine. Unchanged rimegepant is the major single component in excreted feces (42%) and urine (51%).

[1] = Excretion after oral [14C]-rimegepant; type: in vivo, human; settings: oral [14C]-rimegepant, healthy male subjects
Description: as §2

OATP1B1 = OATP1B1 (Homo sapiens, UniProt Q9Y6L6); test: In vitro transporter inhibition; type: in vitro ADME
MATE2-K = MATE2-K (Homo sapiens, UniProt Q86VL8); test: In vitro transporter inhibition; type: in vitro ADME; settings: at clinically relevant concentrations
[2] = Cardiac electrophysiology (QT interval); type: in vivo, human; settings: single dose 4 times the recommended dose
rat micronucleus = test: Rat micronucleus assay (in vivo)
Description: Rimegepant was negative in in vitro (bacterial reverse-mutation, chromosomal aberration in Chinese hamster ovary cells) and in vivo (rat micronucleus) assays.

[3] = Pharmacokinetic interactions with other drugs (oral contraceptives, midazolam, sumatriptan); type: in vivo, human; settings: with oral contraceptives (norelgestromin, ethinyl estradiol), midazolam, or sumatriptan
[4] = Dedicated clinical study, pharmacokinetics in hepatic impairment; type: in vivo, human
Description: In a dedicated clinical study comparing the pharmacokinetics of rimegepant in subjects with mild, moderate, and severe hepatic impairment to that with normal subjects (healthy matched control), the exposure of rimegepant (Cmax and AUC) following a single 75 mg dose was approximately 2-fold higher in subjects with severe impairment (Child-Pugh class C).

P-gp = P-gp (Homo sapiens, UniProt P08183); test: In vitro transporter inhibition; type: in vitro ADME; settings: at clinically relevant concentrations
CYP3A4 [5] = molecular target: T1, CYP3A4 (Homo sapiens, UniProt P08684); test: Dedicated drug interaction study with rifampin (strong CYP3A4 inducer); type: in vivo; set-up: endogenous in cells; host or cells: in vivo, endogenous enzyme of the study subjects; settings: 75 mg single dose with rifampin at steady state
Description: (§3) No dedicated drug interaction study was conducted to assess the effect of concomitant administration of a moderate or weak inducer of CYP3A4 on the pharmacokinetics of rimegepant.

MATE1 = MATE1 (Homo sapiens, UniProt Q96FL8); test: In vitro transporter inhibition; type: in vitro ADME
Description: (§4) Rimegepant is an inhibitor of OATP1B3, OCT2, and MATE1. No clinical drug interactions are expected for NURTEC ODT with these transporters at clinically relevant concentrations.

OAT1 = OAT1 (Homo sapiens, UniProt Q4U2R8); test: In vitro transporter inhibition; type: in vitro ADME; settings: at clinically relevant concentrations
Description: as §4

OATP1B3 = OATP1B3 (Homo sapiens, UniProt Q9NPD5); test: In vitro transporter inhibition; type: in vitro ADME
Description: as §4

OAT3 = OAT3 (Homo sapiens, UniProt Q8TCC7); test: In vitro transporter inhibition; type: in vitro ADME
Description: as §4

OCT2 = OCT2 (Homo sapiens, UniProt O15244); test: In vitro transporter inhibition; type: in vitro ADME
Description: as §4

Plasma protein binding = type: in vitro ADME
Description: as §1

pregnant rats = test: Embryofetal development study, oral administration during organogenesis, rats; type: in vivo, rat
Description: Plasma exposures (AUC) at the no-effect dose (60 mg/kg/day) for adverse effects on embryofetal development were approximately 45 times that in humans at the maximum recommended human dose (MRHD) of 75 mg/day.

CYP3A4 [6] = molecular target: T1, CYP3A4; test: Dedicated drug interaction study with itraconazole (strong CYP3A4 inhibitor); type: in vivo; set-up: endogenous in cells; host or cells: in vivo, endogenous enzyme of the study subjects; settings: 75 mg single dose with itraconazole at steady state
CYP3A4 [7] = molecular target: T1, CYP3A4; test: Expected interactions with moderate or weak CYP3A4 inhibitors and inducers; type: in vivo; set-up: endogenous in cells; host or cells: in vivo, endogenous enzyme of the study subjects
Description: The concomitant administration of rimegepant with a moderate inhibitor of CYP3A4 may increase rimegepant exposures (AUC) by less than 2-fold [see Drug Interactions].
as §3

CYP2C9 [8] = test: Pharmacogenomics: pharmacokinetics by CYP2C9 genotype; type: in vivo, human; settings: CYP2C9 intermediate metabolizers (n=43) compared to normal metabolizers (N=72)
Description: CYP2C9 activity is reduced in individuals with genetic variants such as the CYP2C9*2 and CYP2C9*3 alleles. Rimegepant Cmax and AUC0-inf were similar in CYP2C9 intermediate metabolizers (i.e., *1/*2, *2/*2, *1/*3, n=43) as compared to normal metabolizers (i.e., *1/*1, N=72). Adequate PK data are not available from CYP2C9 poor metabolizers (i.e., *2/*3).

CYP2C9 [9] = molecular target: CYP2C9 (Homo sapiens, UniProt P11712); test: In vitro enzyme study: substrate / metabolism; type: in vitro ADME; settings: listed as Rimegepant
Description: (§5) Rimegepant is a substrate of CYP3A4 and CYP2C9 [see In Vivo Studies].

CYP3A4 [10] = molecular target: T1, CYP3A4; test: In vitro enzyme study: substrate / metabolism; type: in vitro ADME
Description: as §5

T1 sequence (P08684 whole entry): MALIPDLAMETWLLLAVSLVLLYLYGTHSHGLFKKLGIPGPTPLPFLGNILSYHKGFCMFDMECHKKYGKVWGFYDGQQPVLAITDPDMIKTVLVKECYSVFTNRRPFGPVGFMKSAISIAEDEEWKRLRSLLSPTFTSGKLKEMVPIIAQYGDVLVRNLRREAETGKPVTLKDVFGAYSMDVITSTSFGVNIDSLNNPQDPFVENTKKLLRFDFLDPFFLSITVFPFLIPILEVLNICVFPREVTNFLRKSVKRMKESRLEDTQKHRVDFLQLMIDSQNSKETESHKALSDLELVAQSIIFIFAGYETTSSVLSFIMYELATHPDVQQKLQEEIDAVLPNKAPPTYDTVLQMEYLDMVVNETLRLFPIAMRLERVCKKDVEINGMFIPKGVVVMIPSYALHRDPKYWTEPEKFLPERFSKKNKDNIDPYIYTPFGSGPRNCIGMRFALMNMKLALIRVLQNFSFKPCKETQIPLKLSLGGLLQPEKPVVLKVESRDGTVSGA
MATE1, sequence (Q96FL8 whole entry): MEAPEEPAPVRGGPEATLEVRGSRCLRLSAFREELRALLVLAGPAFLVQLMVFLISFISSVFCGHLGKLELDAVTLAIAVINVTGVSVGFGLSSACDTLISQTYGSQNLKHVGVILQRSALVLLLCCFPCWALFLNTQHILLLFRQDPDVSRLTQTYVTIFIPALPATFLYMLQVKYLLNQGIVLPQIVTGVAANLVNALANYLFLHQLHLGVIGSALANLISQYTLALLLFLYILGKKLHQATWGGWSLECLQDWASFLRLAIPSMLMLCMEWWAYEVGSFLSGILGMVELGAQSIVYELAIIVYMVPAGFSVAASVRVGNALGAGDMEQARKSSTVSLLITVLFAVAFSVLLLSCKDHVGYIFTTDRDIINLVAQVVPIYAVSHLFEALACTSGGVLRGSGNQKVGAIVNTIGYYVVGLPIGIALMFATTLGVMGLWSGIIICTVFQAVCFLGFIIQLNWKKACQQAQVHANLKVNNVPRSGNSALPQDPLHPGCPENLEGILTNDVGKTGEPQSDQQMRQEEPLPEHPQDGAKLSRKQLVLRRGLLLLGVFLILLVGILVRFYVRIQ
OCT2, sequence (O15244 whole entry): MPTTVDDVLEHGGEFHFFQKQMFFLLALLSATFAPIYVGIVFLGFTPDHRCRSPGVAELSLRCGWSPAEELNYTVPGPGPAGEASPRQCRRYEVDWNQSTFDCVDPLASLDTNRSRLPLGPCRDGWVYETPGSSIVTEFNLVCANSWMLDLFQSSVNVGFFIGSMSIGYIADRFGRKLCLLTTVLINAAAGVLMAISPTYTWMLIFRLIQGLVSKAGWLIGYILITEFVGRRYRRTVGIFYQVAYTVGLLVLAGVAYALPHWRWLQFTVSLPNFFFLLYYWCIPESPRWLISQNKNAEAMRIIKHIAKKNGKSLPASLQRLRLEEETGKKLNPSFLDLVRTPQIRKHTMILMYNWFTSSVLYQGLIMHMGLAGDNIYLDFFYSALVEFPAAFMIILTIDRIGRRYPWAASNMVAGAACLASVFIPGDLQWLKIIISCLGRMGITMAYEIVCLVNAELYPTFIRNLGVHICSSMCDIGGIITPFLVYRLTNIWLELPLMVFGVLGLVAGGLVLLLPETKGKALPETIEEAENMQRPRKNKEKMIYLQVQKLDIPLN
OAT1, sequence (Q4U2R8 whole entry): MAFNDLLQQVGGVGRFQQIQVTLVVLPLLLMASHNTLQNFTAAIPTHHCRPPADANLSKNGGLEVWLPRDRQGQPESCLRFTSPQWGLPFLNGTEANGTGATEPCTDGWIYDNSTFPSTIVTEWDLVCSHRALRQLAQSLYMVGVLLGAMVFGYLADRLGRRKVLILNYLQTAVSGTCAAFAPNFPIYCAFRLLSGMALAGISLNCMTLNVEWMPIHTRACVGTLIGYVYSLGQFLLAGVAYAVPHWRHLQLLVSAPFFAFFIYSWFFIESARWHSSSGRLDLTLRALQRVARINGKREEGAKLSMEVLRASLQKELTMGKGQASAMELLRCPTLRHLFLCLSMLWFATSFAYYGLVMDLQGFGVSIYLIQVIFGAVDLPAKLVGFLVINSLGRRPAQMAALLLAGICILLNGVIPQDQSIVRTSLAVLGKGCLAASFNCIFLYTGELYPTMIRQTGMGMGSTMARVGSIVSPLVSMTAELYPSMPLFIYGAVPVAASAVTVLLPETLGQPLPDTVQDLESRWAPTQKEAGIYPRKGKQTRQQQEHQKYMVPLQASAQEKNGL
P-gp, sequence (P08183 whole entry): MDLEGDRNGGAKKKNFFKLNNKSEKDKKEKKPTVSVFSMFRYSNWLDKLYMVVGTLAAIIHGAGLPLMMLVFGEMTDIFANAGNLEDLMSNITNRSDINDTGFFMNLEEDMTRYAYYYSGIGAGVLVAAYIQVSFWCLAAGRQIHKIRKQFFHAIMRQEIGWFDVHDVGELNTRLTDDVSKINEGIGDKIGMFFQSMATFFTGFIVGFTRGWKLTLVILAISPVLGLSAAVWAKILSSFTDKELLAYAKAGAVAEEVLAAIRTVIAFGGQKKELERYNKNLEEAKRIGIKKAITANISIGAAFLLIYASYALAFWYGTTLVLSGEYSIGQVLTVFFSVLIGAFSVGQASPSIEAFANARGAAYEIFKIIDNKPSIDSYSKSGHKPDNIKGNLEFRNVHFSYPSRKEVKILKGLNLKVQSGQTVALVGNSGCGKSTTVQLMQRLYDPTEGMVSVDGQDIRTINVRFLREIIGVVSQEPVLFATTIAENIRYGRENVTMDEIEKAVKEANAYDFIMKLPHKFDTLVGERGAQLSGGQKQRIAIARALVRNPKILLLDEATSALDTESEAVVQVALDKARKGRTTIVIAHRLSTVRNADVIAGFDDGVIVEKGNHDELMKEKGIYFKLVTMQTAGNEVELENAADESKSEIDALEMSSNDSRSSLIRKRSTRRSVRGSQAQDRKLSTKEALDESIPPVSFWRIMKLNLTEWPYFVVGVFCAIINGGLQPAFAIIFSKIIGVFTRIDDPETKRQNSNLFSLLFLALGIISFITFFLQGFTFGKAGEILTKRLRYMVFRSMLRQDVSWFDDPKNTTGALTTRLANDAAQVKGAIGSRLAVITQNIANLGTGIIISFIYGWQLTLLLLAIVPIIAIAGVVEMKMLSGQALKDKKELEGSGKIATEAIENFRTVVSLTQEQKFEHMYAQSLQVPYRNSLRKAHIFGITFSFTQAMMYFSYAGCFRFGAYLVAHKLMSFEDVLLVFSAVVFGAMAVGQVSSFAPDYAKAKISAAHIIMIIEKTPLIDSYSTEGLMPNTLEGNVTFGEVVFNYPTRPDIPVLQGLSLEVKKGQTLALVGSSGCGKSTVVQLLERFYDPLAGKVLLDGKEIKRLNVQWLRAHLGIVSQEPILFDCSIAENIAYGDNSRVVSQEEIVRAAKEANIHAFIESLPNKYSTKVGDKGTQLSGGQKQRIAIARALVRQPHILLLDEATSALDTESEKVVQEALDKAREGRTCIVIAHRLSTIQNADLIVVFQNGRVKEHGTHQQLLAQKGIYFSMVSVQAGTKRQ
OAT3, sequence (Q8TCC7 whole entry): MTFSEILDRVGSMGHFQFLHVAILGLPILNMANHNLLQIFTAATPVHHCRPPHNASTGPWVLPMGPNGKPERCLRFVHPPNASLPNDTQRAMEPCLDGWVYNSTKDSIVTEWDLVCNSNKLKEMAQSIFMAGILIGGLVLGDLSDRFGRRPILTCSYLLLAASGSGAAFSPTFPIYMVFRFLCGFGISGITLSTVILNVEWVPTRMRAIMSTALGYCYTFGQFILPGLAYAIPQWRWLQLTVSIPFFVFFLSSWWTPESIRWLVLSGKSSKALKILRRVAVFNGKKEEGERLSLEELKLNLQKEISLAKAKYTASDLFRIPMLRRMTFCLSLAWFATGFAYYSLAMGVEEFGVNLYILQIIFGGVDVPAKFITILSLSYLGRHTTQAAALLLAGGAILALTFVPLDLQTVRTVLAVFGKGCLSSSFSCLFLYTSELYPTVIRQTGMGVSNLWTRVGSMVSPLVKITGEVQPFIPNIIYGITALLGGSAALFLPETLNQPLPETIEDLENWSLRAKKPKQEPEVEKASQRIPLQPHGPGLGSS
OATP1B1, sequence (Q9Y6L6 whole entry): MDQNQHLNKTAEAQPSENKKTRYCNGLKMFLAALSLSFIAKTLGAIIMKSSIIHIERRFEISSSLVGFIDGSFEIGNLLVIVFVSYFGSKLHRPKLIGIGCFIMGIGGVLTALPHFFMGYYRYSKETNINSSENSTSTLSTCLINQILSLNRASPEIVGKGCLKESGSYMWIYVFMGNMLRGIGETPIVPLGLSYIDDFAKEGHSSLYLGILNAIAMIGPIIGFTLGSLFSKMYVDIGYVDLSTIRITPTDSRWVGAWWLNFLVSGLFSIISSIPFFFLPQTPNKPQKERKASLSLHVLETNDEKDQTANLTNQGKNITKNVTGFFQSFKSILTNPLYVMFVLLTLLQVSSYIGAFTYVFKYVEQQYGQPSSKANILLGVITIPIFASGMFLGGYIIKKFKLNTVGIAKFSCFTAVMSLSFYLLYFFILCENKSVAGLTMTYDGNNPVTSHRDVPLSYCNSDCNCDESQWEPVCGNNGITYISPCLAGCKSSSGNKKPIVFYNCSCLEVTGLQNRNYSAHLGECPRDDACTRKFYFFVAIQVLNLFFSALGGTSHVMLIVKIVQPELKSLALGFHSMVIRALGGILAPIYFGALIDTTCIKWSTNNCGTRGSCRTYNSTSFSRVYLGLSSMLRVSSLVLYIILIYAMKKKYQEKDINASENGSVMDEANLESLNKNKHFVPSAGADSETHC

## N[C@@H]1c2cccnc2[C@H](OC(=O)N2CCC(n3c(=O)[nH]c4ncccc43)CC2)CC[C@H]1c1cccc(F)c1F [rimegepant, (5S,6S,9R)-5-amino-6-(2,3-difluorophenyl)-6,7,8,9-tetrahydro-5H-cyclohepta[b]pyridin-9-yl 4-(2-oxo-2,3-dihydro-1H-imidazo[4,5-b]pyridin-1-yl)-1-piperidinecarboxylate]
rats; 0, 5, 15, or 25 mg/kg/day
  effects on fertility, uterine histopathology, early embryonic development: no adverse effects on fertility, uterine histopathology, or early embryonic development
rats; at the no-effect dose (25 mg/kg/day)
  plasma drug exposures (AUC) relative to humans at the MRHD: approximately 15 times
rats; rats
  no-effect dose for impairment of fertility and early embryonic development: 25 mg/kg/day
clinical
  eliminated in unchanged form: ~77 % of the dose
  half-life: ~11 h
  major metabolites (i.e., >10%) in plasma: no major metabolites
clinical; po
  bioavailability: ~64%
[1]
  unchanged rimegepant in excreted feces: 42%
  unchanged rimegepant in excreted urine: 51%
OATP1B1
  inhibition of OATP1B1: weak inhibitor
MATE2-K
  inhibition of MATE2-K: not an inhibitor
[2]
  QT interval prolongation: does not prolong the QT interval to any clinically relevant extent
Rat micronucleus
  mutagenesis, rat micronucleus: negative
[3]
  pharmacokinetic interactions: No significant pharmacokinetic interactions
[4]; mild (Child-Pugh class A) and moderate (Child-Pugh class B) hepatic impairment
  difference in exposure vs normal hepatic function: no clinically meaningful differences
[4]; single 75 mg dose, severe hepatic impairment (Child-Pugh class C)
  exposure (Cmax and AUC) higher than in normal subjects: approximately 2 fold
P-gp
  inhibition of P-gp: not an inhibitor
CYP3A4 [5]
  decrease of rimegepant AUC: 80%
  decrease of rimegepant Cmax: 64%
MATE1
  inhibition of MATE1: inhibitor
OAT1
  inhibition of OAT1: not an inhibitor
OATP1B3
  inhibition of OATP1B3: inhibitor
OAT3
  inhibition of OAT3: weak inhibitor
OCT2
  inhibition of OCT2: inhibitor
Plasma protein binding
  fraction unbound: ~0.04
Pregnant rats; at the no-effect dose (60 mg/kg/day)
  plasma exposure (AUC) relative to humans at the MRHD of 75 mg/day: approximately 45 times
Pregnant rats; highest dose tested (300 mg/kg/day), oral, associated with maternal toxicity
  effects on embryofetal development: decreased fetal body weight and an increased incidence of fetal variations
Pregnant rats; oral, pregnant rats
  no-effect dose for adverse effects on embryofetal development: 60 mg/kg/day
CYP3A4 [6]
  increase of rimegepant AUC: 4 fold
  increase of rimegepant Cmax: ~1.5 fold
CYP3A4 [7]; with a moderate inhibitor of CYP3A4, stated as 'may increase'
  increase of rimegepant exposures (AUC): less than 2 fold
CYP3A4 [7]; with a weak inhibitor of CYP3A4, no dedicated study conducted
  impact on rimegepant exposures: not expected to have a clinically significant impact
CYP3A4 [7]; with moderate inducers of CYP3A4, no dedicated study conducted
  effect on rimegepant exposure: significant reduction in rimegepant exposure
CYP2C9 [8]
  Cmax and AUC0-inf: similar
CYP2C9 [9]
  substrate of / metabolized by CYP2C9: substrate
CYP3A4 [10]
  substrate of / metabolized by CYP3A4: moderately sensitive substrate
CYP3A4 [10]; listed as Rimegepant
  substrate of / metabolized by CYP3A4: primarily metabolized; also recorded: substrate
